# Measurements: US8058311B2, “Imaging 18F or 11C-labelled alkylthiophenyl guanidines” (Hammersmith Imanet Limited, priority 2005, dated 2011)
# Assay: Biodistribution: radioactivity in rat peripheral organs and body fluids after intravenous injection
# Assay type: in vivo
# Experimental: N-(2-Chloro-5-(2-[^18F]fluoro-ethylthio))-phenyl-N′-(3-methylthio)-phenyl-N′-methylguanidine was prepared according to Example 4 (synthesis formulation ˜3% ethanol in 0.9% w/v saline solution) with a radiochemical purity of ˜99% and, at time of injection, the specific activity ranged from 4-16 GBq/nmol^−1. Biodistribution and blood data were from 11 adult male Sprague-Dawley rats (body weight range, 269 to 329 g; mean±S.E.=300±18 g). N-(2-Chloro-5-(2-[^18F]fluoro-ethylthio))-phenyl-N′-(3-methylthio)-phenyl-N′-methylguanidine was injected directly into the tail vein of each rat whilst under isoflurane anaesthesia. Each animal was then allowed to recover from anaesthesia. At designated times after injection, rats were sacrificed by cervical dislocation under anaesthesia and brain and body tissues were rapidly sampled.
# The data were acquired using two syntheses. Rats were given an average of 86 MBq (85.3 MBq for first experimental day and 87.3 MBq for the second experimental day), in a volume of 0.20 ml (synthesis formulation ˜3% alcohol), via direct intravenous injection through the tail vein. The mass of co-injected N-(2-Chloro-5-(2-[^18F]fluoro-ethylthio))-phenyl-N′-(3-methylthio)-phenyl-N′-methylguanidine ranged from 0.7-2.9 nmol.kg^−1. Details of the methodology, together with processing and counting of the samples can be found in Hume et al., Nucl. Med. Biol. (1991) 18: 339-351. Data were normalised for injected radioactivity and body weight, giving: ‘uptake units’=(cpm.g^−1 wet weight tissue)·(injected cpm.g^−1 body weight)^−1 Results
# Radioactivity concentration data are additionally collated in Tables 1 (peripheral tissue) and 2 (brain). As metabolite studies were not carried out, the proportion of the total radioactivity reflecting label associated with parent N-(2-Chloro-5-(2-[^18F]fluoro-ethylthio))-phenyl-N′-(3-methylthio)-phenyl-N′-methylguanidine is not known. Note, Blood and plasma samples were collected post-mortem from the heart ventricle.
smiles,measurement,setting,value
CSc1cccc(N(C)C(=N)Nc2cc(SCC[18F])ccc2Cl)c1 [N-(2-Chloro-5-(2-[^18F]fluoro-ethylthio))-phenyl-N′-(3-methylthio)-phenyl-N′-methylguanidine],peripheral clearance route,,via kidney to urine and via the intestine
same,radioactivity in bone,"2 min, n = 1",1.355 uptake units
same,radioactivity in fat,"2 min, n = 1",0.199 uptake units
same,radioactivity in heart (ventricle),"2 min, n = 1",6.412 uptake units
same,radioactivity in kidney,"2 min, n = 1",12.975 uptake units
same,radioactivity in large intestinal content,"2 min, n = 1",0.113 uptake units
same,radioactivity in large intestine,"2 min, n = 1",3.338 uptake units
same,radioactivity in liver,"2 min, n = 1",5.251 uptake units
same,radioactivity in lung,"2 min, n = 1",32.475 uptake units
same,radioactivity in skeletal muscle,"2 min, n = 1",0.288 uptake units
same,radioactivity in skin,"2 min, n = 1",0.338 uptake units
same,radioactivity in small intestinal content,"2 min, n = 1",1.390 uptake units
same,radioactivity in small intestine,"2 min, n = 1",4.537 uptake units
same,radioactivity in spleen,"2 min, n = 1",3.985 uptake units
same,radioactivity in stomach,"2 min, n = 1",0.843 uptake units
same,radioactivity in testis,"2 min, n = 1",0.456 uptake units
same,radioactivity in urine,"2 min, n = 1",0.109 uptake units
same,radioactivity in bone,"5 min, n = 1",1.440 uptake units
same,radioactivity in fat,"5 min, n = 1",0.814 uptake units
same,radioactivity in heart (ventricle),"5 min, n = 1",2.761 uptake units
same,radioactivity in kidney,"5 min, n = 1",10.113 uptake units
same,radioactivity in large intestinal content,"5 min, n = 1",0.148 uptake units
same,radioactivity in large intestine,"5 min, n = 1",3.442 uptake units
same,radioactivity in liver,"5 min, n = 1",5.648 uptake units
same,radioactivity in lung,"5 min, n = 1",25.015 uptake units
same,radioactivity in skeletal muscle,"5 min, n = 1",0.517 uptake units
same,radioactivity in skin,"5 min, n = 1",0.517 uptake units
same,radioactivity in small intestinal content,"5 min, n = 1",1.449 uptake units
same,radioactivity in small intestine,"5 min, n = 1",3.845 uptake units
same,radioactivity in spleen,"5 min, n = 1",3.676 uptake units
same,radioactivity in stomach,"5 min, n = 1",1.245 uptake units
same,radioactivity in testis,"5 min, n = 1",0.528 uptake units
same,radioactivity in urine,"5 min, n = 1",16.760 uptake units
same,radioactivity in bone,"10 min, n = 2",0.793 uptake units
same,radioactivity in fat,"10 min, n = 2",0.234 uptake units
same,radioactivity in heart (ventricle),"10 min, n = 2",1.119 uptake units
same,radioactivity in kidney,"10 min, n = 2",3.931 uptake units
same,radioactivity in large intestinal content,"10 min, n = 2",0.109 uptake units
same,radioactivity in large intestine,"10 min, n = 2",1.359 uptake units
same,radioactivity in liver,"10 min, n = 2",3.199 uptake units
same,radioactivity in lung,"10 min, n = 2",10.229 uptake units
same,radioactivity in skeletal muscle,"10 min, n = 2",0.391 uptake units
same,radioactivity in skin,"10 min, n = 2",0.248 uptake units
same,radioactivity in small intestinal content,"10 min, n = 2",1.162 uptake units
same,radioactivity in small intestine,"10 min, n = 2",1.618 uptake units
same,radioactivity in spleen,"10 min, n = 2",3.008 uptake units
same,radioactivity in stomach,"10 min, n = 2",0.532 uptake units
same,radioactivity in testis,"10 min, n = 2",0.363 uptake units
same,radioactivity in urine,"10 min, n = 2",13.589 uptake units
same,radioactivity in bone,"30 min, n = 3",1.014 ± 0.019 uptake units
same,radioactivity in fat,"30 min, n = 3",0.613 ± 0.175 uptake units
same,radioactivity in heart (ventricle),"30 min, n = 3",0.740 ± 0.019 uptake units
same,radioactivity in kidney,"30 min, n = 3",3.287 ± 0.208 uptake units
same,radioactivity in large intestinal content,"30 min, n = 3",0.445 ± 0.035 uptake units
same,radioactivity in large intestine,"30 min, n = 3",1.619 ± 0.494 uptake units
same,radioactivity in liver,"30 min, n = 3",6.023 ± 0.699 uptake units
same,radioactivity in lung,"30 min, n = 3",3.786 ± 0.292 uptake units
same,radioactivity in skeletal muscle,"30 min, n = 3",0.487 ± 0.036 uptake units
same,radioactivity in skin,"30 min, n = 3",0.491 ± 0.019 uptake units
same,radioactivity in small intestinal content,"30 min, n = 3",6.002 ± 3.338 uptake units
same,radioactivity in small intestine,"30 min, n = 3",2.241 ± 0.617 uptake units
same,radioactivity in spleen,"30 min, n = 3",2.713 ± 0.086 uptake units
same,radioactivity in stomach,"30 min, n = 3",1.558 ± 0.443 uptake units
same,radioactivity in testis,"30 min, n = 3",0.619 ± 0.081 uptake units
same,radioactivity in urine,"30 min, n = 3",49.593 ± 30.733 uptake units
same,radioactivity in bone,"60 min, n = 3",0.944 ± 0.305 uptake units
same,radioactivity in fat,"60 min, n = 3",0.405 ± 0.358 uptake units
same,radioactivity in heart (ventricle),"60 min, n = 3",0.505 ± 0.104 uptake units
same,radioactivity in kidney,"60 min, n = 3",2.429 ± 0.527 uptake units
same,radioactivity in large intestinal content,"60 min, n = 3",1.176 ± 1.109 uptake units
same,radioactivity in large intestine,"60 min, n = 3",7.291 ± 10.308 uptake units
same,radioactivity in liver,"60 min, n = 3",3.659 ± 0.822 uptake units
same,radioactivity in lung,"60 min, n = 3",2.387 ± 0.195 uptake units
same,radioactivity in skeletal muscle,"60 min, n = 3",0.410 ± 0.096 uptake units
same,radioactivity in skin,"60 min, n = 3",0.435 ± 0.109 uptake units
same,radioactivity in small intestinal content,"60 min, n = 3",10.518 ± 7.766 uptake units
same,radioactivity in small intestine,"60 min, n = 3",1.841 ± 0.678 uptake units
same,radioactivity in spleen,"60 min, n = 3",1.675 ± 0.135 uptake units
same,radioactivity in stomach,"60 min, n = 3",1.227 ± 0.351 uptake units
same,radioactivity in testis,"60 min, n = 3",0.605 ± 0.150 uptake units
same,radioactivity in urine,"60 min, n = 3",23.375 ± 18.208 uptake units
same,radioactivity in bone,"90 min, n = 1",0.889 uptake units
same,radioactivity in fat,"90 min, n = 1",0.548 uptake units
same,radioactivity in heart (ventricle),"90 min, n = 1",0.464 uptake units
same,radioactivity in kidney,"90 min, n = 1",2.127 uptake units
same,radioactivity in large intestinal content,"90 min, n = 1",0.764 uptake units
same,radioactivity in large intestine,"90 min, n = 1",0.775 uptake units
same,radioactivity in liver,"90 min, n = 1",2.856 uptake units
same,radioactivity in lung,"90 min, n = 1",2.150 uptake units
same,radioactivity in skeletal muscle,"90 min, n = 1",0.357 uptake units
same,radioactivity in skin,"90 min, n = 1",0.387 uptake units
same,radioactivity in small intestinal content,"90 min, n = 1",8.700 uptake units
same,radioactivity in small intestine,"90 min, n = 1",1.942 uptake units
same,radioactivity in spleen,"90 min, n = 1",1.418 uptake units
same,radioactivity in stomach,"90 min, n = 1",1.103 uptake units
same,radioactivity in testis,"90 min, n = 1",0.559 uptake units
same,radioactivity in urine,"90 min, n = 1",26.947 uptake units
same,de-fluorination (from bone uptake),90 minutes,no evidence of de-fluorination
same,uptake in lung,at 90 minutes,2 uptake units
same,initial uptake in bone,initial,1.4
same,initial uptake in lung,initial,~30 uptake units
same,"initial content in skeletal muscle, skin and testis","low, retained over the course of the experiment",~0.4 uptake units
same,uptake in bone after decrease,over the 90 minutes of the experiment,~0.8
